These results are taken from US8957086B2, “Compounds and methods of treating brain disorders” (The Board of Trustees of the University of Illinois, priority 2010, dated 2015).

Entries after “also recorded” stand apart in the source; their conditions may differ.

Data set [1] is described as follows: Stability in phosphate buffer (pH 7.4) monitored using HPLC. The data set is classed as physicochemical. The conditions noted are these: pH 7.4, HPLC. The text has this: The stability of compounds of structural formula (II) in phosphate buffer (pH 7.4) was monitored using HPLC.
The next data set relates to scopolamine treated mice. Kind of data set: Step through passive avoidance (STPA) in scopolamine treated mice. The data set is classed as in vivo. The conditions noted are these: i.p. The text has this: The scopolamine treatment results in mice having an attenuated cognitive function. STPA (step through passive avoidance task) is widely used to test long-term memory. The STPA apparatus consists of a two-compartment acrylic box with an illuminated side (15×12×12 cm) connected to a dark side (15×12×12 cm) by a vertical door. The dark side is equipped with an electric grid floor. During the habituation, animals were habituated to the normal behavior of rapidly translocating to the dark from the light side, where they were initially placed. Habituation trials are continued until latency of entering the dark side for each animal is less than 30 seconds. Animals that cannot pass this screening phase are excluded from the study. During the training, animals were trained by receiving an aversive electrical shock (0.5 mA, 2 sec), triggered by entry to the dark compartment, until the latency of entering the dark side reach 300 seconds. At 24 and 72 hours post-training, the animals again are individually placed in the light compartment and the latency to enter the dark compartment, without shock stimulus, is recorded. Statistical analysis of the latency data was performed with one-way ANOVA followed by Bonferroni multiple comparison test. For STPA tests using naïve animals, each animal was administered two ip injections. […]

The test system of data set [2] is primary rat cortical neuron cultures. Briefly: Neuroprotection in primary rat cortical neuron cultures subjected to oxygen-glucose deprivation (OGD), MTT and LDH. The data set is classed as cell-based. The conditions noted are these: primary cultured rat cortical neurons, OGD 2 h + 24 h reoxygenation, 50 μM. Here is the method:
Neuroprotection by compounds of structural formula (I) in neurons using oxygen-glucose deprivation (OGD) followed by recovery for 24 hours in primary rat cortical neuron cultures, measured by LDH release and MTT viability was determined (FIG. 1).
Test compounds are compared to vehicle controls and the known neuroprotective agent CMZ. DMSO is dimethyl sulfoxide. Neuroprotection is represented by (i) a high cell viability relative to control as measured by the MIT assay and (ii) a low LDH activity as measured by assay of LDH. The abscissa in FIGS. 1A and 1B identify the compounds tested by GN number. The structures of AR-OH (also referred to as #00) and AR-N3 (also referred to as #9 or GN-9) are provided above. The structure of AR (also referred to as #10) and CMZ are as follows: […]
FIG. 1A illustrates the evaluation of neuroprotection in primary neurons subject to transient OGD assayed by MTT. […] Cell viability was measured 24 hours after reperfusion by MTT assay. Cell viability percentage was calculated relative to 100% protection from CMZ against OGD-reperfusion injury. […]
FIG. 1B illustrates the evaluation of neuroprotection in primary rat neurons subject to transient OGD assayed by LDH. […] Cell viability was measured 24 hours after reperusion by […]. Cell viability percentage was calculated relative to 100% cytoxicity from OGD-reperfusion in the presence of vehicle (DMSO). […]

Data set [3] deals with primary rat glial cultures. Kind of data set: Attenuation of inflammatory response (nitrite production, Griess assay) in LPS-treated primary rat glial cultures. Type of data set: cell-based. The following applies: primary rat glial cells, LPS/OGD, nitrite by Griess assay. As for the experimental part:
Attenuation of cytokine and inflammatory response by compounds of structural formula (I) were measured by induction of NOS reflected by inhibition of nitrite production in LPS/IFNγ treated primary rat glial cultures.
Primary mixed glia cultures were obtained as described previously (Vairano et al., 2002). Briefly, 1-2 day old Sprague Dawley rat pups were used to prepare primary mixed glial cultures. Cortices were dissected and meninges were removed. Tissues were cut into small pieces and transferred into PBS (without Ca^2+ and Mg^2+) containing 0.125% Trypsin and DNAse 35500 KU/ml, then incubated at 37° C. for 20 min. The cells were dissociated mechanically resuspended in DMEM (10% FBS), then grown in a T-75 flask. After 11-13 days in culture, the cells were replated at 2×10^5 cells/cm^2 in 96-well plates. Cells were used the next day.
Primary cultured cortical glia were incubated with LPS ([…]) in deoxygenated, glucose-free solution, pH 7.4, containing the following (in mM): NaCl 116, CaCl2 1.8, MgSO4 0.8, KCl 5.4, NaH2PO4 1, NaHCO3 14.7, HEPES 10. The cells were placed in a humidified 37° C. incubator (95% N2, 5% CO2) for 2 hours, then conditioned DMEM media containing LPS or PBS were given back to the cells. The tested compounds ([…]) or MAPK inhibitor (SB203580, […]) were present during and after the OGD. […] Cell viability was measured later by MTT assay. […]

The next data set concerns TNF-α. Briefly: TNF-α ELISA on cortical/hippocampal protein homogenates of LaFerla 3×Tg AD mice. Type of data set: in vivo. The following applies: 11 week treatment. The source says:
(§1) Amyloid load also was reduced by drug treatment (data not shown).

In data set [4] the test system is CREB phosphorylated at serine 133. Kind of data set: CREB phosphorylated at serine 133 in LaFerla 3×Tg AD mice. The conditions noted are these: 11 week treatment. Type of data set: in vivo.
Excerpt: as §1

In the next data set the test system is LaFerla 3×Tg AD Mice. Briefly: STPA latency in LaFerla 3×Tg AD mice after 11 week treatment. The conditions noted are these: for latency after 24 h in STPA: 11 week treatment. Type of data set: in vivo.
A short description of data set [5]: Brain penetration in WT mice after i.p. injection, LC-MS (MRM). The following applies: i.p. 1 mg/kg, S/N ratio. The data set is classed as in vivo. Here is the method: Compounds of structural formula (II), i.e., GN-29 and GN-205, were tested for an ability to penetrate the brain. WT mice were given an i.p. injection at a dose of 1 mg/kg, which is equivalent to transgenic mice studies. The presence of drugs in brain tissue was measured by LC-MS using MRM methods.

Data set [6] relates to primary cortical cultures treated with human Aβ1-42. Briefly: Neuroprotection in primary neurons treated with Aβ42 oligomers, with picrotoxin preincubation (MTT, LDH). The conditions noted are these: 100 μM picrotoxin 1 h preincubation, test compounds 50 μM, Aβ1-42 250 nM, 5 days. Type of data set: cell-based. Here is the method:
FIGS. 3A and 3B illustrate neuroprotection in response to amyloid neurotoxicity afforded by compounds of structural formula (I). FIGS. 3A and 3B show neuroprotection in primary neurons treated with Aβ42. In particular, primary cortical cultures at 10-11 DIV were preincubated with 100 μM of picrotoxin for one hour, then perfused with test compounds at 50 μM. Soluble oligomers of human Aβ1-42 then were added at a physiologically relevant concentration of 250 nM. Cultures then were incubated for 5 days, after which time MTT and LDH assays were performed. Results were normalized to untreated DMSO and treated DMSO and statistical analysis was performed with ANOVA, with post-hoc Dunnet's MCT comparing to untreated DMSO, […], ***=p<0.001. Picrotoxin acts as a noncompetitive antagonist for the GABAA receptor chloride channels. It is therefore a channel blocker rather than a receptor antagonist.

For `Cc1ncsc1C(OCCOCCO[N+](=O)[O-])c1ccccc1` (stereo not shown) [GM-30], the “stability in phosphate buffer” value in data set [1] was “excellent stability”.

As to `Cc1ncsc1C(c1ccccc1)n1cc(-c2cccnc2)nn1` (stereo not shown) [GN-12], in the data set on scopolamine treated mice, the “reversal of cognition deficit (STPA)” value is recorded as “reverse a cognition deficit”. The neuroprotection entry in [2] was “substantial neuroprotection; also recorded: superior neuroprotective and anti-neuroinflammatory activities”. The “attenuation of inflammatory response” value in [3] is “attenuation of inflammatory response; also recorded: superior neuroprotective and anti-neuroinflammatory activities”.

Regarding `Cc1ncsc1C(CO[N+](=O)[O-])c1ccccc1` (stereo not shown) [GN-29], in the data set on TNF-α, the “levels of TNF-α” value worked out at 1.70±0.09 μg/mg protein. For the same compound, the “levels of CREB phosphorylated at serine 133” value in data set [4] was determined as 1.2±0.16 units/mg protein. The “latency after 24 h in STPA” value with LaFerla 3×Tg AD Mice came to 277 ± 14 s. In addition, the “cognitive deficit in the transgenic mouse model” value in the data set with LaFerla 3×Tg AD Mice (in words) was “reverses a cognitive deficit”. Further, the “presence in brain tissue (bioavailability in the brain)” value in data set [5] is “highly bioavailable in the brain”.

For `Cc1ncsc1C(NC(=O)C1(CO[N+](=O)[O-])CC1)c1ccccc1` (stereo not shown) [GN-44], the “stability in phosphate buffer” value in data set [1] was “excellent stability”.

`Cc1ncsc1C(NC(=O)OCCCCO[N+](=O)[O-])c1ccccc1` (stereo not shown) [GN-203]: in [1], the “stability in phosphate buffer” value was “excellent stability”.

Take `Cc1ncsc1C(CO[N+](=O)[O-])n1cc(-c2cccnc2)nn1` (stereo not shown) [GN-205]: the “presence in brain tissue (bioavailability in the brain)” value in data set [5] is reported as “highly bioavailable in the brain”.

In the case of `Cc1ncsc1CC[N+](=O)[O-]` [GT-1061, reference compound], in the data set with TNF-α, the “levels of TNF-α” value worked out at 2.18±0.34 μg/mg protein. The “levels of CREB phosphorylated at serine 133” value in [4] amounted to 1.07±0.11 units/mg protein. The “latency after 24 h in STPA” value in the data set with LaFerla 3×Tg AD Mice was 248 ± 35 s.

As for picrotoxin, in data set [6], the “effect of picrotoxin on neuroprotection by test compounds” value is recorded as “blocks the neuroprotective actions of the test compounds”.
